According to patent publication US9765035B2 (priority 2013, dated 2017):
Read-outs that look alike come from different tables or passages of the source.

Legend:
human PRMT1 = biological target: T1, human PRMT1 (Homo sapiens, UniProt Q99873); assay: biochemical
T1 construct: GST-tagged PRMT1; made in house; host or cells: High Five insect cells (baculovirus)
Source text: General Materials. S-adenosylmethionine (SAM), S-adenosylhomocysteine (SAH), bicine, Tween20, dimethylsulfoxide (DMSO), bovine skin gelatin (BSG), and Tris(2-carboxyethyl)phosphine hydrochloride solution (TCEP) were purchased from Sigma-Aldrich at the highest level of purity possible. ^3H-SAM was purchase from American Radiolabeled Chemicals with a specific activity of 80 Ci/mmol. 384-well streptavidin Flashplates were purchased from PerkinElmer.
Substrates. Peptide representative of human histone H4 residues 36-50 was synthesized with an N-terminal linker-affinity tag motif and a C-terminal amide cap by 21st Century Biochemicals. The peptide was purified by high-performance liquid chromatography (HPLC) to greater than 95% purity and confirmed by liquid chromatography mass spectrometry (LC-MS). The sequence was Biot-Ahx-[…]-amide (SEQ ID NO.:1).
Molecular Biology: Full-length human PRMT1 isoform 1 (NM_001536.5) transcript clone was amplified from an HEK 293 cDNA library, incorporating flanking 5′ sequence encoding a FLAG tag ([…]) (SEQ ID NO.:2) fused directly to Met 1 of PRMT1. The amplified gene was subcloned into pFastBacI (Life Technologies) modified to encode an N-terminal GST tag and a TEV cleavage sequence
Protein Expression. Recombinant baculovirus were generated according to Bac-to-Bac kit instructions (Life Technologies). Protein over-expression was accomplished by infecting exponentially growing High Five insect cell culture at 1.5×10^6 cell/ml with 1:100 ratio of virus. Infections were carried out at 27° C. for 48 hours, harvested by centrifugation, and stored at −80° C. for purification.
Protein Purification. […] GST-tagged PRMT1 was eluted with 50 mM Tris, 2 mM glutathione, pH 7.8, dialysed in buffer A and concentrated to 1 mg/mL. The purity of recovered protein was 73%. Reference: Wasilko, D. J. and S. E. Lee: “TIPS: titerless infected-cells preservation and scale-up” Bioprocess J., 5 (2006), pp. 29-32.
General Procedure for PRMT1 Enzyme Assays on Peptide Substrates. The assays were all performed in a buffer consisting of 20 mM Bicine (pH=7.6), 1 mM TCEP, 0.005% BSG, and 0.002% Tween 20, prepared on the day of use. Compounds in 100% DMSO (1 ul) were spotted into a polypropylene 384-well V-bottom plates (Greiner) using a Platemate Plus outfitted with a 384-channel head (Thermo Scientific). DMSO (1 ul) was added to Columns 11, 12, 23, 24, rows A-H for the maximum signal control and 1 ul of SAH, a known product and inhibitor of PRMT1, was added to columns 11, 12, 23, 24, rows I-P for the minimum signal control. A cocktail (40 ul) containing the PRMT1 enzyme was added by Multidrop Combi (Thermo-Fisher). The compounds were allowed to incubate with PRMT1 for 30 min at room temperature, then a cocktail (10 ul) containing SAM and peptide was added to initiate the reaction (final volume=51 ul). The final concentrations of the components were as follows: PRMT1 was 0.5 nM, ^3H-SAM was 200 nM, non-radiolabeled SAM was 1.5 uM, peptide was 20 nM, SAH in the minimum signal control wells was 1 mM, and the DMSO concentration was 2%. The assays were stopped by the addition of non-radiolabeled SAM (10 ul) to a final concentration of 300 uM, which dilutes the ^3H-SAM to a level where its incorporation into the peptide substrate is no longer detectable. 50 ul of the reaction in the 384-well polypropylene plate was then transferred to a 384-well Flashplate and the biotinylated peptides were allowed to bind to the streptavidin surface for at least 1 hour before being washed once with 0.1% Tween20 in a Biotek EL×405 plate washer. The plates were then read in a PerkinElmer TopCount plate reader to measure the quantity of ^3H-labeled peptide bound to the Flashplate surface, measured as disintegrations per minute (dpm) or alternatively, referred to as counts per minute (cpm).
Where dpm=disintegrations per minute, cmpd=signal in assay well, and min and max are the respective minimum and maximum signal controls. […]

[1] = test system: RKO cells, mono-methyl arginine; assay: RKO Methylation Assay (In Cell Western for mono-methyl arginine); format: cell-based; settings: Homo sapiens
Source text: RKO adherent cells were purchased from ATCC (American Type Culture Collection), Manassas, Va., USA. DMEM/Glutamax medium, penicillin-streptomycin, heat inactivated fetal bovine serum, 0.05% trypsin and D-PBS were purchased from Life Technologies, Grand Island, N.Y., USA. Odyssey blocking buffer, 800CW goat anti-rabbit IgG (H+L) antibody, and Licor Odyssey infrared scanner were purchased from Licor Biosciences, Lincoln, Nebr., USA. Mono-methyl arginine antibody was purchased from Cell Signaling Technology, Danvers, Mass., USA. Methanol was purchased from VWR, Franklin, Mass., USA. 10% Tween 20 was purchased from KPL, Inc., Gaithersburg, Md., USA. DRAQ5 was purchased from Biostatus Limited, Leicestershire, UK.
RKO adherent cells were maintained in growth medium (DMEM/Glutamax medium supplemented with 10% v/v heat inactivated fetal bovine serum and 100 units/mL penicillin-streptomycin) and cultured at 37° C. under 5% CO2.
Cell Treatment, in Cell Western (ICW) for Detection of Mono-Methyl Arginine and DNA Content. […] Compound (100 nL) from a 96-well source plate was added directly to 384 well cell plate. Plates were incubated at 37° C., 5% CO2 for 72 hours. After three days of incubation, plates were brought to room temperature outside of the incubator for ten minutes and blotted on paper towels to remove cell media. 50 μL of ice cold 100% methanol was added directly to each well and incubated for 30 min at room temperature. After 30 min, plates were transferred to a Biotek EL406 plate washer and washed 2 times with 100 μL per well of wash buffer (1×PBS). Next 60 μL per well of Odyssey blocking buffer (Odyssey Buffer with 0.1% Tween 20 (v/v)) were added to each plate and incubated 1 hour at room temperature. Blocking buffer was removed and 20 μL per well of primary antibody was added (mono-methyl arginine diluted 1:200 in Odyssey buffer with 0.1% Tween 20 (v/v)) and plates were incubated overnight (16 hours) at 4° C. Plates were washed 5 times with 100 μL per well of wash buffer. […] The plates were washed 5 times with 100 μL per well wash buffer then 2 times with 100 μL per well of water. Plates were allowed to dry at room temperature then imaged on the Licor Odyssey machine which measures integrated intensity at 700 nm and 800 nm wavelengths. Both 700 and 800 channels were scanned.
Calculations: First, the ratio for each well was determined by:
Each plate included fourteen control wells of DMSO only treatment (minimum activation) as well as fourteen control wells for maximum activation treated with 20 μM of a reference compound. The average of the ratio values for each control type was calculated and used to determine the percent activation for each test well in the plate. Reference compound was serially diluted three-fold in DMSO for a total of nine test concentrations, beginning at 20 μM. Percent activation was determined and EC30 curves were generated using triplicate wells per concentration of compound.

[2] = biochemical evaluation, peptide substrate, read-out: PRMT1 IC50
[3] = single experiment or average of multiple experiments, read-out: PRMT1 biochemical evaluation (numerical)
[4] = In Cell Western EC30, RKO cells, 72 hours, single experiment or average of multiple experiments, read-out: RGG ICW
[5] = In Cell Western, RKO cells, 72 hours, read-out: RGG ICW EC30
[6] = RKO, 72 h, read-out: RGG ICW EC30

T1 sequence (Q99873 other isoform, or with tags, fused parts or gaps): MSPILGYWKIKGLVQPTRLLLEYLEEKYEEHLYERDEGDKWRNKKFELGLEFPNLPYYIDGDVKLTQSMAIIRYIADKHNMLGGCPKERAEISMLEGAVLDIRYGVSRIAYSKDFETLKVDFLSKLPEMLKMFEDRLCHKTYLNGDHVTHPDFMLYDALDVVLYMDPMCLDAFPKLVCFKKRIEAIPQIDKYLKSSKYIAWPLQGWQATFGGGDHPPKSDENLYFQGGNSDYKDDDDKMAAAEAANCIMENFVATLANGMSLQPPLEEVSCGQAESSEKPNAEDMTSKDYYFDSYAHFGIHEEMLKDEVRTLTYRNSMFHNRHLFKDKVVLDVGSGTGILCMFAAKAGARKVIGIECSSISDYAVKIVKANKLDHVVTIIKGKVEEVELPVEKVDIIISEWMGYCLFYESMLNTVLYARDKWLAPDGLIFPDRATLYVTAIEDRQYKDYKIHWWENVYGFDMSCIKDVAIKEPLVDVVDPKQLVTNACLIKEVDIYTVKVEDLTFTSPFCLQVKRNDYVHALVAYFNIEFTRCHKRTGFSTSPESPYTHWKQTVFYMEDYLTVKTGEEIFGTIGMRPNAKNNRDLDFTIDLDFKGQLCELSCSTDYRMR

SMILES | IC50 (human PRMT1; [2]) | IC50 (human PRMT1; [3]) | EC30 [1, 4] | EC30 [1, 5] | EC30 [1, 6] | EC30 ([1]; RKO, 72 h, read-out: RGG ICW)
CN(CCN)Cc1n[nH]c2ccc(OCc3ccccc3)cc12 [Compound 1B] | < 100 nM | 3.59 nM | 1710 nM | < 3000 nM |  | 
CC(C)COc1ccc2[nH]nc(CN(C)CCN)c2c1 [Compound 2, N1-((5-iso-butoxy-1H-indazol-3-yl)methyl)-N1-methylethane-1,2-diamine] | < 100 nM | 21 nM | 4210 nM | 3010 to 12000 nM |  | 
CNCCN(C)Cc1nn(C)c2ccc(OCC(C)C)cc12 [Compound 3, N^1-((5-iso-butoxy-1-methyl-1H-indazol-3-yl)methyl)-N^1,N^2-dimethylethane-1,2-diamine] | < 100 nM | 56.2 nM | 14000 nM | > 12000 nM |  | 
CNCCN(C)Cc1n[nH]c2ccc(OCCOC)cc12 [Compound 5, N^1-((5-(2-methoxyethoxy)-1H-indazol-3-yl)methyl)-N^1,N^2-dimethylethane-1,2-diamine] | < 100 nM | 38.5 nM | 11400 nM | 3010 to 12000 nM |  | 
CNCCN(C)Cc1n[nH]c2ccc(OCCCOC)cc12 [Compound 6] | < 100 nM | 19 nM | 1550 nM | < 3000 nM |  | 
CNCCN(C)Cc1n[nH]c2ccc(OCCc3ccccc3)cc12 [Compound 7] | < 100 nM | 6.6 nM | 791 nM | < 3000 nM |  | 
CNCCN(C)Cc1n[nH]c2ccc(OCCC(C)C)cc12 [Compound 8] | < 100 nM | 7.83 nM | 930 nM | < 3000 nM |  | 
CNCCN(C)Cc1n[nH]c2ccc(OC(C)Cc3ccccc3)cc12 (stereo not shown) [Compound 9] | < 100 nM | 10.8 nM | 3430 nM | 3010 to 12000 nM |  | 
CNCCN(C)Cc1n[nH]c2ccc(Oc3ccccc3)cc12 [Compound 10, N^1,N^2-dimethyl-N^1-((5-phenoxy-1H-indazol-3-yl)methyl)ethane-1,2-diamine] | < 100 nM | 16.2 nM | 3830 nM | 3010 to 12000 nM |  | 
CNCCN(C)Cc1n[nH]c2ccc(OC3CCCC3)cc12 [Compound 11] | < 100 nM | 3.3 nM | 724 nM | < 3000 nM |  | 
CNCCN(C)Cc1n[nH]c2ccc(OCc3ccccn3)cc12 [Compound 12] | < 100 nM | 27.2 nM | 6060 nM | 3010 to 12000 nM |  | 
CNCCN(C)Cc1n[nH]c2ccc(OCc3ccc(C#N)cc3)cc12 [Compound 13] | < 100 nM | 86.9 nM | 3820 nM | 3010 to 12000 nM |  | 
CNCCN(C)Cc1n[nH]c2ccc(OCc3cccc(C#N)c3)cc12 [Compound 14] | < 100 nM | 23.3 nM | 4140 nM | 3010 to 12000 nM |  | 
CNCCN(C)Cc1n[nH]c2ccc(OCc3cc[nH]n3)cc12 [Compound 17] | < 100 nM | 51.7 nM | 8990 nM |  | > 12000 nM | 
CNCCN(C)Cc1n[nH]c2ccc(OC3CCCCC3)cc12 [Compound 18] | < 100 nM | 40.2 nM | 582 nM | < 3000 nM |  | 
CNCCN(C)Cc1n[nH]c2ccc(OCC(C)c3ccccc3)cc12 (stereo not shown) [Compound 19] | < 100 nM | 15.9 nM | 680 nM | < 3000 nM |  | 
CNCCN(C)Cc1n[nH]c2ccc(OCc3ccn(C)n3)cc12 [Compound 20] | < 100 nM | 6.33 nM |  |  | < 3000 nM | 710 nM
CNCCN(C)Cc1n[nH]c2cccc(OCc3ccccc3)c12 [Compound 21] | < 100 nM | 13.1 nM | 912 nM | < 3000 nM |  | 
CNCCN(C)Cc1n[nH]c2ccc(Oc3cccc(OC)c3)cc12 [Compound 22] | < 100 nM | 11.9 nM | 1490 nM | < 3000 nM |  | 
CNCCN(C)Cc1n[nH]c2ccc(OCc3ccc(C(C)=O)cc3)cc12 [Compound 23] | < 100 nM | 12 nM | 1760 nM | < 3000 nM |  | 
CNCCN(C)Cc1n[nH]c2ccc(Oc3ccccc3OC)cc12 [Compound 24] | < 100 nM | 12.7 nM |  |  | < 3000 nM | 1930 nM
CNCCN(C)Cc1n[nH]c2ccc(OC3CCOC3)cc12 (stereo not shown) [Compound 25, N^1,N^2-dimethyl-N^1-((5-((tetrahydrofuran-3-yl)oxy)-1H-indazol-3-yl)methyl)ethane-1,2-diamine] | ≤ 100 nM | 81.9 nM | 2660 nM | < 3000 nM |  | 
CNCCN(C)Cc1n[nH]c2ccc(Oc3cccc(C)c3)cc12 [Compound 26] | < 100 nM | 44 nM |  |  | 3010 to 12000 nM | 3070 nM
CNCCN(C)Cc1n[nH]c2ccc(Oc3cccc(Cl)c3)cc12 [Compound 27, N^1-((5-(3-chlorophenoxy)-1H-indazol-3-yl)methyl)-N^1,N^2-dimethylethane-1,2-diamine] | < 100 nM | 31.6 nM |  |  | 3010 to 12000 nM | 4470 nM
CNCCN(C)Cc1n[nH]c2ccc(Oc3cccc(C#N)c3)cc12 [Compound 28] | < 100 nM | 22.5 nM |  |  | 3010 to 12000 nM | 4620 nM
